Assay results taken from patent US10149474B2, “Herbicidal compositions comprising isoxaflutole and diflufenican” (BAYER CROPSCIENCE AKTIENGESELLSCHAFT, priority 2015, dated 2018).

How the values were obtained:
Experiment in all cases: Greenhouse trial, herbicidal activity against weed plants pre-emergence
Settings in all cases: 3 weeks
[1] = test system: POLCO; format: in vivo, Polygonum convolvulus
From the text: (§1) Test Conditions in the Greenhouse Trial, Herbicidal Activity Against Weed Plants Pre-Emergence
(§2) Seeds of monocotyledonous and dicotyledonous weed plants and crop plants are shown in sandy loam soil in wood fibre pots, and covered with soil. The compounds of the invention, formulated in the form of wettable powders (WP) or emulsifiable concentrates (EC), are then applied to the surface of the covering earth, in the form of an aqueous suspension or emulsion, with a water application rate when converted of 600 to 800 I/ha with addition of 0.2% of wetting agent. Following the treatment, the pots are placed in a greenhouse and maintained under good growth conditions for the test plants. Visual scoring of the damage to the trial plants takes place after a trial time of 3 weeks in comparison to untreated controls (herbicidal activity in percent (%): 100% activity=plants have died; 0% activity=as control plants). The results are set out in the tables which follow.
POLCO Polygonum convolvulus
(§3) E^C=Expected value according to Colby (E^C=A+B−A×B/100)
(§4) Δ=Difference (%) between measured value and expected value (%) (measured value minus expected value)
(§5) • measured value E is greater than E^C:→synergism (+Δ) • measured value E is equal to E^C:→additive effect • measured value E is smaller than E^C:→antagonism (−Δ)

[2] = test system: EPHHL; format: in vivo, Euphorbia heterophylla
From the text: as §1, §2
EPHHL Euphorbia heterophylla
as §3, §4, §5

[3] = test system: ECHCG; format: in vivo, Echinochloa crus galli
From the text: as §1, §2
ECHCG Echinochloa crus galli
as §3, §4, §5

[4] = test system: POAAN; format: in vivo, Poa annua
From the text: as §1, §2, §3, §4, §5

[5] = test system: AMAPA USA12001; format: in vivo, Amaranthus palmeri
From the text: as §1, §2
AMAPA (USA12001) Amaranthus palmeri (against HPPD-resistant species)
as §3, §4, §5

[6] = test system: PHBPU; format: in vivo, Pharbitis purpureum
From the text: as §1, §2
PHBPU Pharbitis purpureum
as §3, §4, §5

[7] = test system: AMATA; format: in vivo, Amaranthus tamariscinus
From the text: as §1, §2
AMATA Amaranthus tamariscinus
as §3, §4, §5

O=C(Nc1ccc(F)cc1F)c1cccnc1Oc1cccc(C(F)(F)F)c1 [DFF, diflufenican]
Activity [%] against POLCO ([1]; rate 37.5 g/ha): 55%
Activity [%] against EPHHL ([2]; rate 37.5 g/ha): 30%
Activity [%] against ECHCG ([3]; rate 9.375 g/ha): 5%
Activity [%] against ECHCG ([3]; rate 18.75 g/ha): 5%
Activity [%] against POAAN ([4]; rate 9.375 g/ha): 3%
Activity [%] against POAAN ([4]; rate 18.75 g/ha): 88%
Activity [%] against AMAPA USA12001 ([5]; rate 9.375 g/ha): 20%
Activity [%] against AMAPA USA12001 ([5]; rate 18.75 g/ha): 35%
Activity [%] against AMAPA USA12001 ([5]; rate 37.5 g/ha): 45%
Activity [%] against AMAPA USA12001 ([5]; rate 75 g/ha): 70%
Activity [%] against PHBPU ([6]; rate 9.375 g/ha): 0%
Activity [%] against PHBPU ([6]; rate 18.75 g/ha): 3%
Activity [%] against PHBPU ([6]; rate 37.5 g/ha): 25%
Activity [%] against PHBPU ([6]; rate 75 g/ha): 70%
Activity [%] against AMATA ([7]; rate 9.375 g/ha): 83%

CS(=O)(=O)c1cc(C(F)(F)F)ccc1C(=O)c1cnoc1C1CC1 [IFT, isoxaflutole]
Activity [%] against POLCO ([1]; rate 3 g/ha): 0%
Activity [%] against POLCO ([1]; rate 13 g/ha): 35%
Activity [%] against EPHHL ([2]; rate 6 g/ha): 70%
Activity [%] against ECHCG ([3]; rate 3 g/ha): 73%
Activity [%] against POAAN ([4]; rate 6 g/ha): 0%
Activity [%] against POAAN ([4]; rate 25 g/ha): 0%
Activity [%] against AMAPA USA12001 ([5]; rate 6 g/ha): 0%
Activity [%] against AMAPA USA12001 ([5]; rate 13 g/ha): 15%
Activity [%] against AMAPA USA12001 ([5]; rate 25 g/ha): 55%
Activity [%] against PHBPU ([6]; rate 6 g/ha): 20%
Activity [%] against AMATA ([7]; rate 3 g/ha): 10%
